# Laboratory results published in patent US20160000852A1, “NUTRIENT COMBINATIONS FOR AFFECTING AN AGING PROCESS” (BioMarker Pharmaceuticals, Inc., priority 2013, published 2016).
# Assays:
# Assay type in all cases: in vivo
# [1] = test system: mitochondria of gastrocnemius muscle; assay: Transmission electron microscopy of gastrocnemius muscle mitochondria; settings: D-gal exposed mice
# Excerpt: To understand the grip strength loss caused by D-gal exposure, the morphology of mice gastrocnemius muscles were further evaluated with transmission electron microscopy. FIGS. 4A-4E illustrate the transmission electron microscopy results of the gastrocnemius muscle. In particular, FIG. 4A illustrates the transmission electron microscopy for the control group of subjects (i.e. mice), FIG. 4B illustrates the transmission electron microscopy for the D-gal group, FIG. 4C illustrates the transmission electron microscopy for the Formula A group, FIG. 4D illustrates the transmission electron microscopy for the Formula B group, FIG. 4E illustrates the transmission electron microscopy for the Formula C group. A magnified view of the upper panels in FIGS. 4A-4E are shown in the lower panels.
# [2] = test system: D-gal exposed mice; assay: Spatial memory test with the Morris Water Maze (MWM); settings: D-gal exposure 125 mg/kg/d, 8 weeks; 12 animals
# Excerpt: The Morris Walter Maze (MWM) was applied to measure cognitive deficiencies in D-gal exposed mice. […] In particular, FIG. 1A illustrates the latency time for finding a platform of control subjects, D-gal subjects and subjects administered Formulas A-C over a period of training days. The subjects, in this case, were mice. Values are illustrated as mean ±SEM of 12 animals. […] In addition, FIG. 1B illustrates the latency distance to the platform of control subjects, D-gal subjects and subjects administered Formulas A-C over the same period of training days as illustrated in FIG. 1A.
# [3] = test system: D-gal exposed mice; assay: Grip strength test (forelimb); settings: 12 mice
# Experimental: It should further be understood that a decrease in strength is a reliable indicator of the aging process. In this aspect, the rodent grip strength test is a putative measure of muscular strength and has been previously used to screen for neuromuscular function. FIG. 3 illustrates the results of a grip strength test. In particular, grip strength of forelimb was tested. Values are means ±SEM of 12 mice. **P<0.01 versus Normal group, ^##P<0.01 versus D-gal group, ^###P<0.001 versus D-gal group.
# [4] = test system: complex I in gastrocnemius mitochondria; assay: Complex I activity in gastrocnemius mitochondria; settings: D-gal exposed mice; n=12
# Experimental: In view of the abnormal mitochondrial morphology in the skeletal muscle of the D-gal treated mice, the activities of some key enzymes in the electron transport chain (ETC) and the tricarboxylic acid (TCA) cycle were further examined.
# (§1) FIG. 7 illustrates the effects of Formulas A-C on the activity of complex I in gastrocnemius and heart mitochondria. Activities of complex I of gastrocnemius (n=12) and heart (n=11) in all groups were assayed. All values are expressed as means ±SEM. **P<0.01 versus Normal group, ^#P<0.05 versus D-gal group, ^##P<0.01 versus D-gal group.
# [5] = test system: D-gal exposed mice; assay: Coordination test with the Rota-Rod; settings: 12 animals
# Experimental: FIG. 2 illustrates a coordination test with the Rota-Rod. In addition, latency to fall was tested. Values are mean ±SEM of 12 animals.
# [6] = test system: complex I in heart mitochondria; assay: Complex I activity in heart mitochondria; settings: D-gal exposed mice; n=11
# Experimental: The activity of complex I was also assayed in several other tissues, such as liver, heart, and brain. FIG. 6 illustrates activities of complex I in mitochondria from multiple tissues. As is illustrated by the results shown in FIG. 6, D-gal administration impairs the activity of complex I in gastrocnemius. Values are means ±SEM of 12 mice in gastroanemius, 11 mice in heart and 12 mice in brain and liver. **P<0.01 versus Normal group.
# as §1
smiles,measurement,setting,value
"O=C[C@H](O)[C@@H](O)[C@@H](O)[C@H](O)CO [D-gal, D-galactose]",mitochondrial morphology in gastrocnemius muscle,[1],swollen and elongated mitochondria with obvious cristae disruption
same,spatial memory (latency time and latency distance to platform) in MWM,[2],did not affect the escape latency or swimming distance
same,grip strength of forelimb,[3],significantly weaker grip strength
same,complex I activity in gastrocnemius (skeletal muscle) mitochondria,[4],only complex I activity was impaired
same,motor coordination (latency to fall) in Rota-Rod test,[5],No difference in latency time
same,complex I activity in heart mitochondria,[6],marginal decrease in heart muscle
